Laboratory results: patent US3996359A, “Novel stereoisomeric component A of stereoisomeric mixtures of 2'-unsymmetrical 16,17-methylenedioxy steroid 21-acylates, compositions thereof, and method of treating therewith” (AB Bofors, priority 1972, dated 1976)

Test system: rats subjected to adrenalectomy (granuloma around implanted cotton wads)
Test: granulom test (cotton-pellet test) on rats subjected to adrenalectomy: granuloma growth, thymus weight, body weight increase
Type: in vivo, rat (Sprague-Dawley)
Details: for Dose required to obtain 50% inhibition of Granuloma growth: Table 3, adrenalectomized young male Sprague-Dawley rats, topical in implanted cotton wads, day 8; for Dose required to obtain 25% inhibition of Body weight Increase / Dose required to obtain 50% inhibition of Thymus weight: 11520 min
Description: In the following this active stereoisomeric component will always be designated B. As regards the steroids referred to in connection with the present invention the stereoisomeric mixture as well as the individual stereoisomeric components A and B have been investigated with regard to antiinflammatory activity in granulom test on rats subjected to adrenalectomy. The experimental procedure used corresponds largely to that described by G. Engelhardt: Arzneimittel-Forschung, 13, p. 588, 1963. According to this procedure the test substances are applied topically in the implanted cottom wads. It is thereby possible to study the local antiinflammatory effect in granulomas and also systemic effects in the form of retrogression of thymus and inhibition of bodyweight growth.
Young male rats of the Sprague-Dawley strain weighing about 110-130 g were subjected to adrenalectomy under ether narcosis. Two sterilized cottom wads of each about 6 mg were implanted simultaneously subcutaneously on the lateral side of the spinal. After awakening the animals were stored 5 per cage and were supplied with normal food and 1% sodium chloride solution as drinking water. On the eighth test day the animals were sacrificed by ether narcosis. The granuloma formed around the cotton wads were carefully recovered and thymus and body weights were measured. The two granuloma from each animal were dried over night at 80° C and weighed. After subtraction of the initial weight of the cotton wads the weight increase was used as a measure of the granulom growth.
The test substances were used dissolved in ethyl acetate. Under aseptic conditions 0.05 ml of said solutions were injected into each of the cotton wads, whereafter the solvent was allowed to evaporate in the desiccator. Normally 3 concentrations of each test substance with the standard doses 3.3, 30 and 270 γ/animal were investigated. Each test group normally comprised 10 rats. The cotton wads of the control group were injected with only ethyl acetate, but were in other respects treated in the same way. When considering the effects of the test substances the average values of granulom growth, thymus weight and body weight increase day 0-8 were measured in each group in absolute figures and in % of the corresponding figure of the control group. Dose-response curves were drafted and used for estimating the doses giving 50 % reduction of granulom growth and of thymus weight and 25 % decrease of body weight increase.
The following Table 4 discloses the results of the cotton-pellet test hereinbefore described, giving in addition figures for the therapeutic ratios, that is, the ratios of the ED50 for thymus weight inhibition divided by the ED50 for granuloma formation inhibition, and the ED25 for body weight increase inhibition over the ED50 for granuloma formation inhibition. As will be recognized, the higher the number for the therapeutic ratio, the more favorable the therapeutic ratio. […] As will be noted for the table, the therapeutic ratio for thymus over granuloma for the Component A esters is 4.2, 7.1, 4.5, 2.6, 2.2, 1.7, 2.5 and 1.7 times as good as it is for the corresponding Component B ester isomer, whereas the therapeutic ratio for the Component A ester isomer as far as body weight is granuloma 2.7, 3.3, 9.8, 6.4, 2.3, 2.8, 3.3 and 2.8 times as favorable as for the corresponding Component B ester isomer.

| SMILES | Dose required to obtain 50% inhibition of Granuloma growth | Therapeutic ratio body weight/granuloma (Table 4, ED25 body weight increase inhibition over ED50 granuloma formation inhibition) | Therapeutic ratio thymus/granuloma (Table 4, ED50 thymus weight inhibition divided by ED50 granuloma formation inhibition) | ED25 body weight increase inhibition (rat, in vivo) [µg/animal] | ED50 thymus weight inhibition (rat, in vivo) [µg/animal] | Dose required to obtain 25% inhibition of Body weight Increase (rat, in vivo) | Dose required to obtain 50% inhibition of Thymus weight (rat, in vivo) | Therapeutic ratio body weight/granuloma (rat, in vivo) | Therapeutic ratio thymus/granuloma (rat, in vivo) |
| --- | --- | --- | --- | --- | --- | --- | --- | --- | --- |
| CC1O[C@@H]2C[C@H]3[C@@H]4CCC5=CC(=O)C=C[C@]5(C)[C@@]4(F)[C@@H](O)C[C@]3(C)[C@]2(C(=O)COC(=O)c2cc3ccccc3o2)O1 (some centres unmarked) [16 A] | 5 γ/animal | > 9.0 | 14.0 | > 45 | 70 | > 45 γ/animal | 70 γ/animal | – | – |
| CCCCCC1O[C@@H]2C[C@H]3[C@@H]4CCC5=CC(=O)C=C[C@]5(C)[C@H]4[C@@H](O)C[C@]3(C)[C@]2(C(=O)CO)O1 (single isomer, unassigned) [13 B] | 5 γ/animal | – | – | – | – | > 270 γ/animal | 210 γ/animal | – | – |
| CCCCCC1OC2CC3C4CCC5=CC(=O)C=CC5(C)C4(F)C(O)CC3(C)C2(C(=O)CO)O1 (mixture of isomers) [5 A+B] | 17 γ/animal | – | – | – | – | > 270 γ/animal | 130 γ/animal | – | – |
| CCCC1O[C@@H]2C[C@H]3[C@@H]4CCC5=CC(=O)C=C[C@]5(C)[C@@]4(F)[C@@H](O)C[C@]3(C)[C@]2(C(=O)COC(=O)c2cccnc2)O1 (single isomer, unassigned) [21 A] | < 3 γ/animal | – | – | – | – | 70 γ/animal | 70 γ/animal | – | – |
| CCCC1O[C@@H]2C[C@H]3[C@@H]4CCC5=CC(=O)C=C[C@]5(C)[C@@]4(F)[C@@H](O)C[C@]3(C)[C@]2(C(=O)COC(=O)c2cc3ccccc3o2)O1 (single isomer, unassigned) [20 B] | < 3 γ/animal | – | – | 5 | 20 | 5 γ/animal | 20 γ/animal | > 1.7 | > 6.7 |
| CCCC1OC2CC3C4CCC5=CC(=O)C=CC5(C)C4(F)C(O)CC3(C)C2(C(=O)COC(=O)c2cccnc2)O1 (mixture of isomers) [21 A+B] | 7 γ/animal | – | – | – | – | 10 γ/animal | 35 γ/animal | – | – |
| CCCC1O[C@@H]2C[C@H]3[C@@H]4CCC5=CC(=O)C=C[C@]5(C)[C@@]4(F)[C@@H](O)C[C@]3(C)[C@]2(C(=O)CO)O1 (single isomer, unassigned) [3 B] | 3 γ/animal | – | – | – | – | 100 γ/animal | 17 γ/animal | – | – |
| CC1O[C@@H]2C[C@H]3[C@@H]4C[C@H](F)C5=CC(=O)C=C[C@]5(C)[C@@]4(F)[C@@H](O)C[C@]3(C)[C@]2(C(=O)CO)O1 (single isomer, unassigned) [7 B] | 10 γ/animal | – | – | – | – | 15 γ/animal | 6 γ/animal | – | – |
| CCCC1OC2CC3C4CCC5=CC(=O)C=CC5(C)C4C(O)CC3(C)C2(C(=O)COC(C)=O)O1 (mixture of isomers) [27 A+B] | < 3 γ/animal | – | – | – | – | 40 γ/animal | 60 γ/animal | – | – |
| CCCCCC1O[C@@H]2C[C@H]3[C@@H]4CCC5=CC(=O)C=C[C@]5(C)[C@@]4(F)[C@@H](O)C[C@]3(C)[C@]2(C(=O)CO)O1 (single isomer, unassigned) [5 B] | 10 γ/animal | – | – | – | – | > 270 γ/animal | 90 γ/animal | – | – |
| CCCC1O[C@@H]2C[C@H]3[C@@H]4C[C@H](F)C5=CC(=O)C=C[C@]5(C)[C@@]4(F)[C@@H](O)C[C@]3(C)[C@]2(C(=O)COC(=O)c2cc3ccccc3o2)O1 (single isomer, unassigned) [25 B] | < 3 γ/animal | – | – | 20 | 7 | 20 γ/animal | 7 γ/animal | > 2.9 | > 2.3 |
| CCCC1O[C@@H]2C[C@H]3[C@@H]4CCC5=CC(=O)C=C[C@]5(C)[C@H]4[C@@H](O)C[C@]3(C)[C@]2(C(=O)CO)O1 (some centres unmarked) [12 A+B] | 100 γ/animal | – | – | – | – | 80 γ/animal | 80 γ/animal | – | – |
| CCC1OC2CC3C4CCC5=CC(=O)C=CC5(C)C4(F)C(O)CC3(C)C2(C(=O)CO)O1 (mixture of isomers) [2 A+B] | 35 γ/animal | – | – | – | – | 140 γ/animal | 100 γ/animal | – | – |
| CCCC1O[C@@H]2C[C@H]3[C@@H]4CCC5=CC(=O)C=C[C@]5(C)[C@@]4(F)[C@@H](O)C[C@]3(C)[C@]2(C(=O)COC(=O)c2cc3ccccc3o2)O1 (single isomer, unassigned) [20 A] | < 3 γ/animal | – | – | 50 | 90 | 50 γ/animal | 90 γ/animal | > 16.7 | > 30.0 |
| CCCCC(=O)OCC(=O)[C@@]12OC(C)O[C@@H]1C[C@H]1[C@@H]3CCC4=CC(=O)C=C[C@]4(C)[C@@]3(F)[C@@H](O)C[C@@]12C (single isomer, unassigned) [18 B] | < 3 γ/animal | – | – | 10 | 10 | 10 γ/animal | 10 γ/animal | > 3.3 | > 3.3 |
| CCCC1O[C@@H]2C[C@H]3[C@@H]4CCC5=CC(=O)C=C[C@]5(C)[C@H]4[C@@H](O)C[C@]3(C)[C@]2(C(=O)CO)O1 (single isomer, unassigned) [12 A] | 125 γ/animal | – | – | – | – | > 270 γ/animal | 125 γ/animal | – | – |
